Experimental findings from US20050288273A1, “Antibacterial agents” (priority 2003, published 2005) are described below.

Values after ≈ are worked out from the molar mass of the structure shown.

One data set relates to S pyogenes C203. The experiment in a line: Antibacterial assay (MIC), standard microtitration, Gram positive. To be noted: Gram positive bacteria; read-out: Minimum Inhibitory Concentrations S pyogenes C203. It is filed as cell-based. An excerpt:
(§1) Test A—Antibacterial Assays

Another data set concerns E. faecalis MGH-2. Described as above. The class given is cell-based. The following applies: Enterococcus faecalis, MGH2; Gram positive bacteria; read-out: Minimum Inhibitory Concentrations E. faecalis MGH-2.
Excerpt: as §1

The next data set has as its system S. aureus UC-76. The description is as above. It is filed as cell-based. To be noted: Staphylococcus aureus, UC76; Gram positive bacteria; read-out: Minimum Inhibitory Concentrations S. aureus UC-76.
Excerpt: as §1

The next data set relates to H. influenzae HI3542. In words: Antibacterial assay (MIC), standard microtitration, Gram negative. The class given is cell-based. The following applies: Gram negative bacteria; for MIC: Haemophilus influenzae, HI3542, read-out: Minimum Inhibitory Concentrations H. influenzae HI3542.
Excerpt: as §1

In another data set the test system is M. catarrhalis BC3534. The data set is described as above. To be noted: Gram negative bacteria; for MIC: Moraxella catarrhalis, BC3534, read-out: Minimum Inhibitory Concentrations M. catarrhalis BC3534. It is filed as cell-based.
Excerpt: as §1

The next data set has as its system E. coli Tol C. The description is as above. It is filed as cell-based. To be noted: for MIC: Escherichia coli, read-out: Minimum Inhibitory Concentrations E. coli Tol C.
Excerpt: as §1

The compound `COC(=O)NC[C@H]1CN(c2ccc3c(c2)CCCc2cnoc2-3)C(=O)O1` registered a melting point of 166 to 168 °C.

In turn, `CN(C)/C=C1/CCCc2cc(N3C[C@H](CNC(=O)OC(C)(C)C)OC3=O)ccc2C1=O` (stereo in doubt) had a melting point of 157 to 160 °C.

As for `O=C(CC(F)(F)F)NC[C@H]1CN(c2ccc3c(c2)CCCc2cnoc2-3)C(=O)O1`, the melting point is 150 to 186 °C.

For the compound `O=C1O[C@@H](COc2ccon2)CN1c1ccc2c(c1)CCCc1cn[nH]c1-2` [Example 158, (R)-5-(Isoxazol-3-yloxymethyl)-3-(1,4,5,6-tetrahydro-1,2-diaza-benzo[e]azulen-8-yl)-oxazolidin-2-one], the MIC in the data set on S pyogenes C203 was 1 µg/mL (≈ 2.73 µM); with E. faecalis MGH-2, 2 µg/mL (≈ 5.46 µM); in the data set on S. aureus UC-76 it was 1 µg/mL (≈ 2.73 µM); in the data set on H. influenzae HI3542, greater than 64 µg/mL; in the data set on M. catarrhalis BC3534, 8 µg/mL (≈ 21.8 µM); in the data set on E. coli Tol C, greater than 64 µg/mL.

With `O=C(CC1CC1)NC[C@H]1CN(c2ccc3c(c2)CCCc2cn[nH]c2-3)C(=O)O1`, the melting point was 212 to 215 °C.

With `CC(=S)NC[C@H]1CN(c2ccc3c(c2)CCCc2cnoc2-3)C(=O)O1`, the melting point lay within 185 to 195 °C.

`Cl.NC[C@H]1CN(c2ccc3c(c2)CCCc2cnoc2-3)C(=O)O1` came in with a melting point of 245 to 258 °C.

In the case of `CC(=O)NC[C@H]1CN(c2ccc3c(c2)-c2oncc2CCC3)C(=O)O1` [Example 4, (S)-N-[3-(5,6-dihydro-4H-1-oxa-2-aza-benzo[e]azulen-9-yl)-2-oxo-oxazolidin-5-ylmethyl]acetamide], the MIC in the data set with S pyogenes C203 is 0.125 µg/mL (≈ 0.366 µM); in the data set on E. faecalis MGH-2 it was 0.25 µg/mL (≈ 0.732 µM); in the data set with S. aureus UC-76, 0.5 µg/mL (≈ 1.46 µM); with H. influenzae HI3542 it was 2 µg/mL (≈ 5.86 µM); in the data set with M. catarrhalis BC3534 it was 1 µg/mL (≈ 2.93 µM); in the data set with E. coli Tol C, greater than 64 µg/mL.

In the case of `O=C(NC[C@H]1CN(c2ccc3c(c2)CCCc2cn[nH]c2-3)C(=O)O1)c1ccccc1`, the melting point fell in the range of 105 to 125 °C.

As to `CC(=O)NC[C@H]1CN(c2ccc3c(c2)CCCc2c(-c4ccc(F)cc4)n[nH]c2-3)C(=O)O1` [Example 95, (S)-N-{3-[3-(4-Fluoro-phenyl)-1,4,5,6-tetrahydro-1,2-diaza-benzo[e]azulen-8-yl]-2-oxo-oxazolidin-5-ylmethyl}-acetamide], the MIC was 0.5 µg/mL (≈ 1.15 µM) with S pyogenes C203; 0.5 µg/mL (≈ 1.15 µM) in the data set with E. faecalis MGH-2; 4 µg/mL (≈ 9.21 µM) in the data set on S. aureus UC-76; 8 µg/mL (≈ 18.4 µM) with H. influenzae HI3542; 1 µg/mL (≈ 2.3 µM) in the data set on M. catarrhalis BC3534; greater than 64 µg/mL in the data set with E. coli Tol C.

Regarding `CC(=S)NC[C@H]1CN(c2ccc3c(c2)CCCc2cn[nH]c2-3)C(=O)O1`, the melting point fell in the range of 190 to 195 °C.

Compound `COC(=O)CC(=O)NC[C@H]1CN(c2ccc3c(c2)CCCc2cnoc2-3)C(=O)O1` had a melting point of 205 to 217 °C.

Turning to `CC(=O)NC[C@H]1CN(c2ccc3c(c2)CCCc2cn(C)nc2-3)C(=O)O1` [Example 122, (S)-N-[3-(2-Methyl-2,4,5,6-tetrahydro-1,2-diaza-benzo[e]azulen-8-yl)-2-oxo-oxazolidin-5-ylmethyl]-acetamide], the MIC was 0.5 µg/mL (≈ 1.41 µM) in the data set with S pyogenes C203; 1 µg/mL (≈ 2.82 µM) in the data set with E. faecalis MGH-2; 1 µg/mL (≈ 2.82 µM) with S. aureus UC-76; greater than 64 µg/mL in the data set with H. influenzae HI3542; greater than 64 µg/mL in the data set with M. catarrhalis BC3534; greater than 64 µg/mL with E. coli Tol C.

Regarding `O=C(NC[C@H]1CN(c2ccc3c(c2)CCCc2cn[nH]c2-3)C(=O)O1)C1CC1`, the melting point was 224 to 227 °C.

In turn, `O=C1O[C@@H](CNC(=O)C(F)(F)F)CN1c1ccc2c(c1)CCCc1cnoc1-2` (stereo in doubt) came in with a melting point of 203 to 205 °C.

In turn, `CC(C)C(=O)NC[C@H]1CN(c2ccc3c(c2)CCCc2cnn(C(=O)C(C)C)c2-3)C(=O)O1` came in with a melting point of 75 to 80 °C.

For the compound `CC(=O)NC[C@H]1CN(c2ccc3c(c2)CCCc2c(C)n[nH]c2-3)C(=O)O1` [Example 99, (S)-N-[3-(3-Methyl-1,4,5,6-tetrahydro-1,2-diaza-benzo[e]azulen-8-yl)-2-oxo-oxazolidin-5-ylmethyl]-acetamide], the MIC in the data set on S pyogenes C203 is 0.5 µg/mL (≈ 1.41 µM); in the data set with E. faecalis MGH-2, 1 µg/mL (≈ 2.82 µM); in the data set on S. aureus UC-76 it was 1 µg/mL (≈ 2.82 µM); with H. influenzae HI3542 it was 4 µg/mL (≈ 11.3 µM); in the data set on M. catarrhalis BC3534, 4 µg/mL (≈ 11.3 µM); in the data set on E. coli Tol C it was greater than 64 µg/mL.

In turn, `O=C(CC1CCCC1)NC[C@H]1CN(c2ccc3c(c2)CCCc2cnn(C(=O)CC4CCCC4)c2-3)C(=O)O1` had a melting point of 165 to 167 °C.

On to `O=C(NC[C@H]1CN(c2ccc3c(c2)CCCc2cnoc2-3)C(=O)O1)C1CC1`, for which the melting point was 211 to 215 °C.

Take `CC(C)C(=O)NC[C@H]1CN(c2ccc3c(c2)CCCc2cnoc2-3)C(=O)O1`: the melting point was 187 to 193 °C.

Compound `O=C(NC[C@H]1CN(c2ccc3c(c2)CCCc2cn[nH]c2-3)C(=O)O1)C(F)F` displayed a melting point of 147 to 150 °C.

As for `CCC(=O)NC[C@H]1CN(c2ccc3c(c2)CCCc2cn[nH]c2-3)C(=O)O1`, the melting point fell in the range of 233 to 235 °C.

Compound `O=C(CC(F)(F)F)NC[C@H]1CN(c2ccc3c(c2)CCCc2cn[nH]c2-3)C(=O)O1` gave a melting point of 243 to 245 °C.

Consider `CCOC(=O)NC[C@H]1CN(c2ccc3c(c2)CCCc2cnoc2-3)C(=O)O1`, for which the melting point lay within 181 to 183 °C.

For the compound `O=C(CC1CCCC1)NC[C@H]1CN(c2ccc3c(c2)CCCc2cnoc2-3)C(=O)O1`, the melting point fell in the range of 193 to 195 °C.

Regarding “(S)-N-[3-(2-Benzyl-2,4,5,6-tetrahydro-1,2-diaza-benzo[e]azulen-8-yl)-2-oxo-oxazolidin-5-ylmethyl]-acetamide and (S)-N-[3-(1-Benzyl-1,4,5,6-tetrahydro-1,2-diaza-benzo[e]azulen-8-yl)-2-oxo-oxazolidin-5-ylmethyl]-acetamide [Example 123]”, the “Minimum Inhibitory Concentrations H. influenzae HI3542” value with H. influenzae HI3542 is greater than 64 µg/mL. The “Minimum Inhibitory Concentrations M. catarrhalis BC3534” value in the data set on M. catarrhalis BC3534 is greater than 64 µg/mL. In the data set with E. coli Tol C (Gram negative bacteria), the “Minimum Inhibitory Concentrations E. coli Tol C” value is greater than 64 µg/mL.

Regarding `COC(=O)NC[C@H]1CN(c2ccc3c(c2)CCCc2cn[nH]c2-3)C(=O)O1`, the melting point is 87 to 93 °C.

Regarding `O=C1O[C@@H](COc2ccccn2)CN1c1ccc2c(c1)CCCc1cn[nH]c1-2` [Example 164, (R)-5-(Pyridin-2-yloxymethyl)-3-(1,4,5,6-tetrahydro-1,2-diaza-benzo[e]azulen-8-yl)-oxazolidin-2-one], the MIC with S pyogenes C203 was 2 µg/mL (≈ 5.31 µM); with E. faecalis MGH-2, 4 µg/mL (≈ 10.6 µM); in the data set with S. aureus UC-76, 4 µg/mL (≈ 10.6 µM); in the data set on H. influenzae HI3542 it was greater than 64 µg/mL; in the data set on M. catarrhalis BC3534 it was greater than 64 µg/mL; in the data set with E. coli Tol C, greater than 64 µg/mL.

Consider `O=C1O[C@@H](COc2ccccn2)CN1c1ccc2c(c1)CCCc1cnoc1-2` [Example 165, (R)-3-(5,6-Dihydro-4H-1-oxa-2-aza-benzo[e]azulen-8-yl)-5-(pyridin-2-yloxymethyl)-oxazolidin-2-one], for which the MIC in the data set with S pyogenes C203 is 2 µg/mL (≈ 5.3 µM); with E. faecalis MGH-2, 4 µg/mL (≈ 10.6 µM); in the data set with S. aureus UC-76 it was 4 µg/mL (≈ 10.6 µM); with H. influenzae HI3542 it was greater than 64 µg/mL; with M. catarrhalis BC3534 it was greater than 64 µg/mL; in the data set on E. coli Tol C, greater than 64 µg/mL.

For the compound `O=C(NC[C@H]1CN(c2ccc3c(c2)CCCc2cnn(C(=O)c4ccccc4)c2-3)C(=O)O1)c1ccccc1`, the melting point lay within 75 to 95 °C.

Compound `O=C(NC[C@H]1CN(c2ccc3c(c2)CCCc2cnoc2-3)C(=O)O1)c1ccccc1` registered a melting point of 240 to 245 °C.

`Cl.NC[C@H]1CN(c2ccc3c(c2)CCCc2cn[nH]c2-3)C(=O)O1` came in with a melting point of 201 to 223 °C.

`CCOC(=O)NC[C@H]1CN(c2ccc3c(c2)CCCc2cn[nH]c2-3)C(=O)O1` showed a melting point of 122 to 126 °C.

`O=C(CC1CCCC1)NC[C@H]1CN(c2ccc3c(c2)CCCc2cn[nH]c2-3)C(=O)O1`: the melting point was in the range of 205 to 208 °C.

Regarding `O=C(NC[C@H]1CN(c2ccc3c(c2)CCCc2cnoc2-3)C(=O)O1)C(F)F`, the melting point was in the range of 145 to 180 °C.

`O=C(CC1CC1)NC[C@H]1CN(c2ccc3c(c2)CCCc2cnoc2-3)C(=O)O1`: the melting point lay within 187 to 191 °C.

With `CC(C)(C)OC(=O)NC[C@H]1CN(c2ccc3c(c2)CCCc2cnoc2-3)C(=O)O1`, the melting point fell in the range of 180 to 184 °C.

With `CC(=O)NC[C@H]1CN(c2ccc3c(c2)CCCc2c(-c4ccncc4)n[nH]c2-3)C(=O)O1` [Example 96, (S)-N-[2-Oxo-3-(3-pyridin-4-yl-1,4,5,6-tetrahydro-1,2-diaza-benzo[e]azulen-8-yl)-oxazolidin-5-ylmethyl]-acetamide], the MIC in the data set with S pyogenes C203 was 0.25 µg/mL (≈ 0.599 µM); with E. faecalis MGH-2, 1 µg/mL (≈ 2.4 µM); with S. aureus UC-76 it was 2 µg/mL (≈ 4.79 µM); with H. influenzae HI3542, 4 µg/mL (≈ 9.58 µM); in the data set with M. catarrhalis BC3534, 2 µg/mL (≈ 4.79 µM); with E. coli Tol C, greater than 64 µg/mL.

As to `CC(=O)NC[C@H]1CN(c2ccc3c(c2)CCCc2c(-c4ccccc4)n[nH]c2-3)C(=O)O1` [Example 98, (S)-N-[2-Oxo-3-(3-phenyl-1,4,5,6-tetrahydro-1,2-diaza-benzo[e]azulen-8-yl)-oxazolidin-5-ylmethyl]-acetamide], the MIC in the data set with S pyogenes C203 was 0.5 µg/mL (≈ 1.2 µM); in the data set on E. faecalis MGH-2 it was 0.5 µg/mL (≈ 1.2 µM); in the data set on S. aureus UC-76, 0.5 µg/mL (≈ 1.2 µM); with H. influenzae HI3542, 8 µg/mL (≈ 19.2 µM); with M. catarrhalis BC3534, 2 µg/mL (≈ 4.8 µM); in the data set with E. coli Tol C, greater than 64 µg/mL.

On to `CCC(=O)NC[C@H]1CN(c2ccc3c(c2)CCCc2cnoc2-3)C(=O)O1`, for which the melting point fell in the range of 185 to 186 °C.

With `O=C1O[C@@H](COc2ccon2)CN1c1ccc2c(c1)CCCc1cnoc1-2` [Example 159, (R)-3-(5,6-Dihydro-4H-1-oxa-2-aza-benzo[e]azulen-8-yl)-5-(isoxazol-3-yloxymethyl)-oxazolidin-2-one], the MIC with S pyogenes C203 turned out to be 2 µg/mL (≈ 5.44 µM); in the data set on E. faecalis MGH-2, 2 µg/mL (≈ 5.44 µM); in the data set with S. aureus UC-76, 4 µg/mL (≈ 10.9 µM).

`CCNC(=O)NC[C@H]1CN(c2ccc3c(c2)CCCc2cnoc2-3)C(=O)O1`: the melting point lay in the range of 193 to 196 °C.
